# Laboratory results: the NIST ThermoML archive (doi:10.1016/j.tca.2005.04.002)
# ± gives the expanded uncertainty stated by the source.
# Assay: mn = molality of the nth substance listed, in mol/kg
# Conditions: 298.15 K; 101.33 kPa; Liquid; Calvet calorimetry; m1 = 0.1
row,SMILES,molar enthalpy of solution [kcal/mol]
1,N[C@@H](CO)C(=O)O [L-serine] + O,2.69 ± 0.0454
2,NCC(=O)O [2-aminoacetic acid] + O,3.38 ± 0.0526
3,C[C@H](N)C(=O)O [(S)-2-aminopropanoic acid] + O,1.86 ± 0.0359
